The results in this text go back to patent US20150023885A1, “Antiperspirant Spray Devices and Compositions” (The Procter & Gamble Company, priority 2013, published 2015).

The text on this data set: Solubility may be determined by measuring the amount of light transmittance (a light transmittance value) through a simple mixture of the non-volatile silicone fluid and liquid activation enhancer at the same weight/weight concentrations as in a final antiperspirant composition.
Solubility of a liquid activation enhancer in a non-volatile silicone may be determined by measuring the amount of light transmittance (light transmittance value) through a simple mixture of the non-volatile silicone fluid and liquid activation enhancer at the same weight/weight concentrations as in a final antiperspirant composition.
The Spectronic Genesys 10 Vis utilizes a tungsten-halogen light source and has a spectral bandwidth of 5 nm, a wavelength range of 325 to 1100 nm, accuracy of ±1 nm and a repeatability of ±0.5 nm. Readouts include absorbance, transmittance and concentration. The spectrophotometer is set to 640 nm wavelength and the percent transmittance mode/readout. Polystyrene spectrometer cuvettes having a 1 cm optical light path and transmittance between ˜340 nm and ˜900 nm are used. One suitable example of a spectrometer cuvette is available from VWR International LLC under Catalog #97000-584 having a 2.5 to 4.5 ml capacity. The spectrophotometer is calibrated according to the manufacturer's instructions using a reference cuvette and composition comprised of just the non-volatile silicone fluid of interest. For example, if the test composition comprises 50 centistoke dimethicone and 15% w/w of isopropyl myristate, then the spectrometer is calibrated using a cuvette containing just 50 centistoke dimethicone. Sample cuvettes are filled sufficiently with a test composition of a non-volatile silicone fluid and liquid activation enhancer so that the light path of the spectrophotometer passes through the test composition in the cuvette. The sample cuvettes are shaken well just prior to taking a light transmittance reading.

For mineral oil, the light transmittance value result is “about 100%”.

For `CCCCCCCCCCCCCC(C)C` [isohexadecane], the light transmittance value entry is given as “about 100%” and the “solubility in 50 centistoke dimethicone” value is on record as “soluble in 50 centistoke dimethicone across the 2% to 30% w/w concentration range”.

With `CCCCCCCCCCCCCCCCCC(=O)OCCCC` [butyl stearate], the light transmittance value result was “about 100%”.

For PPG-14 butyl ether, the “solubility in 50 centistoke dimethicone” value is “insoluble in 50 centistoke dimethicone across the 2% to 30% w/w concentration range”.
